Experimental findings from patent US12053459B2, “CDK2 inhibitors and methods of using the same” (Cedilla Therapeutics, Inc., priority 2021, dated 2024) are described below.

In assay [1] the test system is Kuramochi cells. As to the kind of experiment: BrdU cell proliferation assay (colorimetric ELISA), Kuramochi cells. The class given is cell-based. The note with it: class symbols A-D. In short, it runs like this: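 Kuramochi cells (2,000/well, with Kuramochi RB^KO cells as a specificity control) were treated with a 4-point, 3-fold dilution series made from 10 mM compound stocks and left for 4 days at 37 °C. Proliferation was measured by 1 h BrdU labelling, then anti-BrdU peroxidase ELISA read at 450 nm. Signals were background-subtracted and normalized to DMSO wells.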
A general note: ELISA stands for enzyme-linked immunosorbent assay.

Assay [2] has as its target CDK2/Cyclin E1(14-475) (Homo sapiens, UniProt P24941). As to the kind of experiment: Caliper LabChip EZ Reader mobility shift assay, inhibition of CDK2/Cyclin E1 activity. The class given is biochemical. The note with it: class symbols A-D. In short, it runs like this: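 CDK2/Cyclin E1(14-475) pre-incubated 30 min with compound and ATP, then reaction started with 5-FAM-QSPKKG-CONH2; final 2.5 nM enzyme, 100 μM ATP, 1.5 μM peptide, HEPES pH 7.5. Stopped with EDTA after 100 min; substrate/product conversion by capillary electrophoresis mobility shift, IC50 from four-parameter fit.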

Bounds are passed on as bounds.

For orientation: IC50 means the concentration needed to halve the response being measured. In the case of `CNC(=O)[C@H](CCCc1ccccc1)NC(=O)C1CN(C(=O)Cc2c[nH]c3cc(Cl)ccc23)CC2CN(C(=O)c3ccc4c(c3)c(OC)nn4C(C)C)CC21` (stereo partly drawn) [I-84], the IC50 in assay [1] is > 10 µM; in assay [2], 0.5 to 5 µM.

For the molecule `CNC(=O)[C@H](CCCc1ccccc1)NC(=O)C1CN(C(=O)Cc2c[nH]c3cc(Cl)ccc23)CC2CN(C(=O)c3ccc(OC(C)C)c4occc34)CC21` (stereo partly drawn) [I-85], the IC50 in assay [1] was > 10 µM; in assay [2], ≤ 0.5 µM.

For the molecule `COc1cc(C(=O)N2CC3CN(C(=O)Cc4c[nH]c5cc(Cl)ccc45)CC(C(=O)N[C@@H]4CCCN(Cc5ccccc5)C4)C3C2)ccc1OC(C)C` (stereo partly drawn) [I-88, N—((R)-1-benzylpiperidin-3-yl)-5-(2-(6-chloro-1H-indol-3-yl)acetyl)-2-(4-isopropoxy-3-methoxybenzoyl)octahydro-1H-pyrrolo[3,4-c]pyridine-7-carboxamide], the IC50 in assay [1] and in assay [2] was > 10 µM throughout.

As for `COc1cc(C(=O)N2CC3CN(C(=O)Cc4c[nH]c5cc(Cl)ccc45)CC(C(=O)NC4CCCN(C(=O)c5ccccc5)C4)C3C2)ccc1OC(C)C` (stereo not drawn) [I-89], the IC50 in assay [1] and in assay [2] was > 10 µM each time.

As for `COc1cc(C(=O)N2CC3CN(C(=O)Cc4c[nH]c5cc(Cl)ccc45)CC(C(=O)NC4CCCN(C(=O)Cc5ccccc5)C4)C3C2)ccc1OC(C)C` (stereo not drawn) [I-90], the IC50 in assay [1] and in assay [2] was > 10 µM each time.

In the case of `CNC(=O)[C@H](CCCc1ccccn1)NC(=O)C1CN(C(=O)Cc2c[nH]c3cc(Cl)ccc23)CC2CN(C(=O)c3ccc(OC(C)C)c(OC)c3)CC21` (stereo partly drawn) [I-91], the IC50 was > 10 µM in assay [1] and 0.5 to 5 µM in assay [2].

Turning to `CNC(=O)[C@H](NC(=O)C1CN(C(=O)Cc2c[nH]c3cc(Cl)ccc23)CC2CN(C(=O)c3ccc(OC(C)C)c(OC)c3)CC21)[C@@H](C)OCc1ccccc1` (stereo partly drawn) [I-92], the IC50 in assay [1] and in assay [2] was > 10 µM throughout.

As for `CNC(=O)C(CCCC1CCCC1)NC(=O)C1CN(C(=O)Cc2c[nH]c3cc(Cl)ccc23)CC2CN(C(=O)c3ccc(OC(C)C)c(OC)c3)CC21` (stereo not drawn) [I-93], the IC50 in assay [1] was > 10 µM; in assay [2], 0.5 to 5 µM.

`CNC(=O)[C@H](CCCC1CCC(C(F)(F)F)CC1)NC(=O)C1CN(C(=O)Cc2c[nH]c3cc(Cl)ccc23)CC2CN(C(=O)c3ccc(OC(C)C)c(OC)c3)CC21` (stereo partly drawn) [I-94]: the IC50 in assay [1] and in assay [2] was > 10 µM each time.

Turning to `CNC(=O)[C@@H](CCCC(C)(C)C)NC(=O)C1CN(C(=O)Cc2c[nH]c3cc(Cl)ccc23)CC2CN(C(=O)c3ccc(OC(C)C)c(OC)c3)CC21` (stereo partly drawn) [I-95], the IC50 is > 10 µM in assay [1] and 0.5 to 5 µM in assay [2].

For `CNC(=O)[C@H](CCCC(C)C)NC(=O)C1CN(C(=O)Cc2c[nH]c3cc(Cl)ccc23)CC2CN(C(=O)c3ccc(OC(C)C)c(OC)c3)CC21` (stereo partly drawn) [I-97], the IC50 was > 10 µM in assay [1] and 0.5 to 5 µM in assay [2].

In the case of `COc1cc(C(=O)N2CC3CN(C(=O)Cc4c[nH]c5cc(Cl)ccc45)CC(C(=O)N[C@@H](C)C(=O)NCCCc4ccccc4)C3C2)ccc1OC(C)C` (stereo partly drawn) [I-98], the IC50 in assay [1] is > 10 µM; in assay [2], 0.5 to 5 µM.

For `COc1cc(C(=O)N2CC3CN(C(=O)Cc4c[nH]c5cc(Cl)ccc45)CC(C(=O)NCC(=O)NCCCc4ccccc4)C3C2)ccc1OC(C)C` (stereo not drawn) [I-99], the results for the IC50 in assay [1] and in assay [2] were > 10 µM and 0.5 to 5 µM, respectively.

On to `CNC(=O)[C@@H](NC(=O)C1CN(C(=O)Cc2c[nH]c3cc(Cl)ccc23)CC2CN(C(=O)c3ccc(OC(C)C)c(OC)c3)CC21)[C@@H](C)OCc1ccccc1` (stereo partly drawn) [I-102], for which the IC50 in assay [1] is > 10 µM; in assay [2], 0.5 to 5 µM.

For `COc1cc(C(=O)N2CC3CN(C(=O)Cc4c[nH]c5cc(Cl)ccc45)CC(C(=O)N[C@@H](C)C(=O)N(C)CCCc4ccccc4)C3C2)ccc1OC(C)C` (stereo partly drawn) [I-103], the half-maximal inhibitory concentration (IC50) is > 10 µM in assay [1] and 0.5 to 5 µM in assay [2].

For `CNC(=O)[C@@H](CCCC1CCC(C(F)(F)F)CC1)NC(=O)C1CN(C(=O)Cc2c[nH]c3cc(Cl)ccc23)CC2CN(C(=O)c3ccc(OC(C)C)c(OC)c3)CC21` (stereo partly drawn) [I-104], the IC50 in assay [1] and in assay [2] was > 10 µM each time.

As to `CNC(=O)[C@H](NC(=O)C1CN(C(=O)Cc2c[nH]c3cc(Cl)ccc23)CC2CN(C(=O)c3ccc(OC(C)C)c(OC)c3)CC21)[C@H](C)OCc1ccccc1` (stereo partly drawn) [I-105], the IC50 in assay [1] and in assay [2] was > 10 µM throughout.

For `CNC(=O)[C@@H](NC(=O)C1CN(C(=O)Cc2c[nH]c3cc(Cl)ccc23)CC2CN(C(=O)c3ccc(OC(C)C)c(OC)c3)CC21)[C@H](C)OCC1CCCCC1` (stereo partly drawn) [I-107], the IC50 is 0.5 to 5 µM in assay [1] and ≤ 0.5 µM in assay [2].

For `CNC(=O)[C@H](NC(=O)C1CN(C(=O)Cc2c[nH]c3cc(Cl)ccc23)CC2CN(C(=O)c3ccc(OC(C)C)c(OC)c3)CC21)[C@@H](C)OCC1CCCCC1` (stereo partly drawn) [I-108], the IC50 in assay [1] and in assay [2] was > 10 µM each time.

With `COc1cc(C(=O)N2CC3CN(C(=O)Cc4c[nH]c5cc(Cl)ccc45)CC(C(=O)N[C@@H](CCCc4ccccc4)C(N)=O)C3C2)ccc1OC(C)C` (stereo partly drawn) [I-109], the IC50 in assay [1] is > 10 µM; in assay [2] it was 0.5 to 5 µM.

For `CNC(=O)[C@@H](CCCC1CCCCC1)NC(=O)C1CN(C(=O)Cc2c[nH]c3cc(Cl)ccc23)CC2CN(C(=O)c3ccc(OC(C)C)c(OC)c3)CC21` (stereo partly drawn) [I-112], the IC50 in assay [1] is > 10 µM; in assay [2] it was 5 to 10 µM.

In the case of `CNC(=O)[C@H](CCCC1CCCCC1)NC(=O)C1CN(C(=O)Cc2c[nH]c3cc(Cl)ccc23)CC2CN(C(=O)c3ccc(OC(C)C)c(OC)c3)CC21` (stereo partly drawn) [I-113], the IC50 was > 10 µM in assay [1] and 0.5 to 5 µM in assay [2].

On to `CNC(=O)[C@@H](CCCC(C)C)NC(=O)C1CN(C(=O)Cc2c[nH]c3cc(Cl)ccc23)CC2CN(C(=O)c3ccc(OC(C)C)c(OC)c3)CC21` (stereo partly drawn) [I-114], for which the IC50 in assay [1] and in assay [2] was > 10 µM throughout.

`CNC(=O)[C@H](CCCc1ccc(O)cc1)NC(=O)C1CN(C(=O)Cc2c[nH]c3cc(Cl)ccc23)CC2CN(C(=O)c3ccc(OC(C)C)c(OC)c3)CC21` (stereo partly drawn) [I-115]: the IC50 in assay [1] is > 10 µM; in assay [2], 5 to 10 µM.

In the case of `CNC(=O)[C@H](CCCC1CCC(O)CC1)NC(=O)C1CN(C(=O)Cc2c[nH]c3cc(Cl)ccc23)CC2CN(C(=O)c3ccc(OC(C)C)c(OC)c3)CC21` (stereo partly drawn) [I-116], the IC50 in assay [1] and in assay [2] was > 10 µM in each case.

With `CNC(=O)[C@H](CCCc1cccnc1)NC(=O)C1CN(C(=O)Cc2c[nH]c3cc(Cl)ccc23)CC2CN(C(=O)c3ccc(OC(C)C)c(OC)c3)CC21` (stereo partly drawn) [I-126], the IC50 in assay [1] was > 10 µM; in assay [2] it was 0.5 to 5 µM.

Turning to `CNC(=O)[C@H](CCCc1ccccc1O)NC(=O)C1CN(C(=O)Cc2c[nH]c3cc(Cl)ccc23)CC2CN(C(=O)c3ccc(OC(C)C)c(OC)c3)CC21` (stereo partly drawn) [I-127], the IC50 in assay [1] was > 10 µM; in assay [2], 0.5 to 5 µM.

On to `CNC(=O)[C@H](CCCc1cccc(O)c1)NC(=O)C1CN(C(=O)Cc2c[nH]c3cc(Cl)ccc23)CC2CN(C(=O)c3ccc(OC(C)C)c(OC)c3)CC21` (stereo partly drawn) [I-128], for which the IC50 in assay [1] fell in the range of 0.5 to 5 µM; in assay [2], 5 to 10 µM.

In the case of `CNC(=O)[C@H](NC(=O)C1CN(C(=O)Cc2c[nH]c3cc(Cl)ccc23)CC2CN(C(=O)c3ccc(OC(C)C)c(OC)c3)CC21)[C@H](C)OCC1CCCCC1` (stereo partly drawn) [I-129], the IC50 in assay [1] and in assay [2] was > 10 µM throughout.

As to `CNC(=O)[C@H](CCCC1CCOCC1)NC(=O)C1CN(C(=O)Cc2c[nH]c3cc(Cl)ccc23)CC2CN(C(=O)c3ccc(OC(C)C)c(OC)c3)CC21` (stereo partly drawn) [I-130], the IC50 is > 10 µM in assay [1] and 0.5 to 5 µM in assay [2].

Regarding `CNC(=O)[C@@H](CCCC1CCOCC1)NC(=O)C1CN(C(=O)Cc2c[nH]c3cc(Cl)ccc23)CC2CN(C(=O)c3ccc(OC(C)C)c(OC)c3)CC21` (stereo partly drawn) [I-131], the IC50 in assay [1] fell in the range of 0.5 to 5 µM; in assay [2] it was 5 to 10 µM.

For `CNC(=O)[C@@H](CCCC1CCCC1)NC(=O)C1CN(C(=O)Cc2c[nH]c3cc(Cl)ccc23)CC2CN(C(=O)c3ccc(OC(C)C)c(OC)c3)CC21` (stereo partly drawn) [I-132], the IC50 is > 10 µM in assay [1] and 0.5 to 5 µM in assay [2].

In the case of `CNC(=O)[C@H](CCCc1ccc(C(F)(F)F)cc1)NC(=O)C1CN(C(=O)Cc2c[nH]c3cc(Cl)ccc23)CC2CN(C(=O)c3ccc(OC(C)C)c(OC)c3)CC21` (stereo partly drawn) [I-133], the figures for the IC50 in assay [1] and in assay [2] were > 10 µM and 0.5 to 5 µM, respectively.

Regarding `CNC(=O)[C@@H](CCCc1ccc(C(F)(F)F)cc1)NC(=O)C1CN(C(=O)Cc2c[nH]c3cc(Cl)ccc23)CC2CN(C(=O)c3ccc(OC(C)C)c(OC)c3)CC21` (stereo partly drawn) [I-134], the IC50 in assay [1] and in assay [2] was > 10 µM in each case.

In the case of `CNC(=O)C(NC(=O)C1CN(C(=O)Cc2c[nH]c3cc(Cl)ccc23)CC2CN(C(=O)c3ccc(OC(C)C)c(OC)c3)CC21)[C@@H](C)OCC1CCCCC1` (stereo partly drawn) [I-135], the IC50 is 0.5 to 5 µM in assay [1] and ≤ 0.5 µM in assay [2].

With `CNC(=O)[C@H](C/C=C/c1ccccc1)NC(=O)C1CN(C(=O)Cc2c[nH]c3cc(Cl)ccc23)CC2CN(C(=O)c3ccc(OC(C)C)c(OC)c3)CC21` (stereo partly drawn) [I-136], the IC50 is > 10 µM in assay [1] and 0.5 to 5 µM in assay [2].

Regarding `CNC(=O)[C@H](CC#Cc1ccccc1)NC(=O)C1CN(C(=O)Cc2c[nH]c3cc(Cl)ccc23)CC2CN(C(=O)c3ccc(OC(C)C)c(OC)c3)CC21` (stereo partly drawn) [I-137], the IC50 in assay [1] and in assay [2] was > 10 µM each time.

For `CNC(=O)[C@H](CCCc1ccncc1)NC(=O)C1CN(C(=O)Cc2c[nH]c3cc(Cl)ccc23)CC2CN(C(=O)c3ccc(OC(C)C)c(OC)c3)CC21` (stereo partly drawn) [I-138], the IC50 in assay [1] and in assay [2] was > 10 µM each time.

As to `CNC(=O)[C@H](CCCc1cccc2[nH]nnc12)NC(=O)C1CN(C(=O)Cc2c[nH]c3cc(Cl)ccc23)CC2CN(C(=O)c3ccc(OC(C)C)c(OC)c3)CC21` (stereo partly drawn) [I-139], the IC50 in assay [1] was > 10 µM; in assay [2], 0.5 to 5 µM.
